The values below come from publication PMC8920929 (The Journal of Biological Chemistry, 2022).

In one test the target is T1, TRPV3-I505A (Homo sapiens, UniProt Q8NET8, I505A).
T1 sequence (Q8NET8 1-790 I505A): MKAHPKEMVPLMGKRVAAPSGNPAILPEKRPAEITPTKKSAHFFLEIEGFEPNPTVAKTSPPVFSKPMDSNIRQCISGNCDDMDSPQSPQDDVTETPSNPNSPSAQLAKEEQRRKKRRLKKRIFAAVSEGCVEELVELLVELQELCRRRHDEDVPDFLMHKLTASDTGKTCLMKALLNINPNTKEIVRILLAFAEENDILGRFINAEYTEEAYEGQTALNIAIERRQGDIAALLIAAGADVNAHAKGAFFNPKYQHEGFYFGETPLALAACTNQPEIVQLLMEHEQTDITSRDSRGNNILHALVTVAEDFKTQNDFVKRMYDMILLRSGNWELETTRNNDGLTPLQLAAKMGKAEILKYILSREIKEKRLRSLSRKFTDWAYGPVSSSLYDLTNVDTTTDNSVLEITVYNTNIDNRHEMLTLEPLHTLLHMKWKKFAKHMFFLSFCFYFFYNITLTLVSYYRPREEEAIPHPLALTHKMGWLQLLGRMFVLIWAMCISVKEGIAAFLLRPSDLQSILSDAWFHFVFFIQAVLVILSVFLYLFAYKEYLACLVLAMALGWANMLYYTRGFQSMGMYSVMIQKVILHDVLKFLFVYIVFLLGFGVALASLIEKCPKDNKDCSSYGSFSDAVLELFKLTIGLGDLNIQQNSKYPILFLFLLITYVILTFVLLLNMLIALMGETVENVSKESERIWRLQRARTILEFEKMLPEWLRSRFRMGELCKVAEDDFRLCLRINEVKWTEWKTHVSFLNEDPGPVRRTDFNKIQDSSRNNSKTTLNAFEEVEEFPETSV
As to the kind of experiment: Whole-cell and single-channel recordings of the TRPV3-I505A mutant. Type of test: cell-based.

The target of a further test is T2, TRPV3-D512A (Homo sapiens, UniProt Q8NET8, D512A).
T2 sequence (Q8NET8 1-790 D512A): T1 sequence (Q8NET8 1-790 I505A) with A505I, D512A
As to the kind of experiment: Whole-cell and single-channel recordings of the TRPV3-D512A mutant. The test is classed as cell-based.

A further test addresses T3, TRPV3-L508A (Homo sapiens, UniProt Q8NET8, L508A).
T3 sequence (Q8NET8 1-790 L508A): T1 sequence (Q8NET8 1-790 I505A) with A505I, L508A
Nature of the test: Whole-cell and single-channel recordings of the TRPV3-L508A mutant. The test is classed as cell-based. To be noted: carvacrol 0.3-3.0 mM or 50 μM 2-APB.

The next test has as its system mice. To be noted: mice, but not TRPV3-KO mice; ref [33], [34]; cited from earlier work.

Molecules are shown by their SMILES. Substitutions are numbered along the chain they refer to.

For `Cc1ccc(C(C)C)cc1O` [carvacrol, 5-Isopropyl-2-methylphenol], the EC50 on TRPV3-I505A stood at 3.51 ± 0.44 mM; at TRPV3-D512A, 3.21 ± 0.48 mM. Besides, the “right shift of channel activation versus WT TRPV3” value at TRPV3-I505A (I505A versus WT) and on TRPV3-D512A (D512A versus WT) was “over 10 fold” each time. For the same compound, at TRPV3-I505A (carvacrol 0.3-3.0 mM or 50 μM 2-APB), the “activation of TRPV3 I505A mutant channel” value was “weak activation of TRPV3 I505A at high concentration of 3 mM”. The “sensitivity of TRPV3 D512A mutant channel” value on TRPV3-D512A (carvacrol 0.3-3.0 mM) is given as “decreased the sensitivity”. Also, on TRPV3-L508A, the “activation of TRPV3 L508A mutant channel” value is “loss of the mutant channel activation”. Further, in the test on mice, the “pruritus on pharmacological activation of TRPV3” value was “induces pruritus”.
